Reference: patent US7632844B2, “2-hydroxy-6-phenylphenanthridines as PDE-4 inhibitors” (Nycomed GmbH, priority 2002, dated 2009)

Biological target: T1, PDE4B2 (GB no. M97515) (Homo sapiens, UniProt Q07343)
T1 construct: made in house; host or cells: SF21 insect cells (baculovirus; virus made in SF9 cells)
Assay: Inhibition of PDE4B2 activity, Method b (modified SPA test, recombinant PDE expressed in SF21 cells)
Format: biochemical
Settings: 0.5 μM cAMP, read-out: Inhibition of the PDE4 activity, −log IC50 (converted)
Protocol: The PDE4B2 (GB no. M97515) was a gift of Prof. M. Conti (Stanford University, USA). It was amplified from the original plasmid (pCMV5) via PCR with primers Rb9 (5′-[…]-3′) and Rb10 (5′-[…]-3′) and cloned into the pCR-Bac vector (Invitrogen, Groningen, NL).
The recombinant baculovirus was prepared by means of homologous recombination in SF9 insect cells. The expression plasmid was cotransfected with Bac-N-Blue (Invitrogen, Groningen, NL) or Baculo-Gold DNA (Pharmingen, Hamburg) using a standard protocol (Pharmingen, Hamburg). Wt virus-free recombinant virus supernatant was selected using plaque assay methods. After that, high-titre virus supernatant was prepared by amplifying 3 times. PDE was expressed in SF21 cells by infecting 2×10^6 cells/ml with an MOI (multiplicity of infection) between 1 and 10 in serum-free SF900 medium (Life Technologies, Paisley, UK). The cells were cultured at 28° C. for 48-72 hours, after which they were pelleted for 5-10 min at 1000 g and 4° C.
The SF21 insect cells were resuspended, at a concentration of approx. 10^7 cells/ml, in ice-cold (4° C.) homogenization buffer (20 mM Tris, pH 8.2, containing the following additions: 140 mM NaCl, 3.8 mM KCl, 1 mM EGTA, 1 mM MgCl2, 10 mM β-mercaptoethanol, 2 mM benzamidine, 0.4 mM Pefablock, 10 μM leupeptin, 10 μM pepstatin A, 5 μM trypsin inhibitor) and disrupted by ultrasonication. The homogenate was then centrifuged for 10 min at 1000×g and the supernatant was stored at −80° C. until subsequent use (see below). The protein content was determined by the Bradford method (BioRad, Munich) using BSA as the standard.
PDE4B2 activity is inhibited by the said compounds in a modified SPA (scintillation proximity assay) test, supplied by Amersham Biosciences (see procedural instructions “phosphodiesterase [3H]cAMP SPA enzyme assay, code TRKQ 7090”), carried out in 96-well microtiter plates (MTP's). The test volume is 100 μl and contains 20 mM Tris buffer (pH 7.4), 0.1 mg of BSA (bovine serum albumin)/ml, 5 mM Mg^2+, 0.5 μM cAMP (including about 50,000 cpm of [3H]cAMP), 1 μl of the respective substance dilution in DMSO and sufficient recombinant PDE (1000×g supernatant, see above) to ensure that 10-20% of the cAMP is converted under the said experimental conditions. […] After a preincubation of 5 min at 37° C., the reaction is started by adding the substrate (cAMP) and the assay is incubated for a further 15 min; after that, it is stopped by adding SPA beads (50 μl). In accordance with the manufacturer's instructions, the SPA beads had previously been resuspended in water, but were then diluted 1:3 (v/v) in water; the diluted solution also contains 3 mM IBMX to ensure a complete PDE activity stop. After the beads have been sedimented (>30 min), the MTP's are analyzed in commercially available luminescence detection devices. The corresponding IC50 values of the compounds for the inhibition of PDE activity are determined from the concentration-effect curves by means of non-linear regression.

T1 sequence (Q07343 1-564 isoform Q07343-2): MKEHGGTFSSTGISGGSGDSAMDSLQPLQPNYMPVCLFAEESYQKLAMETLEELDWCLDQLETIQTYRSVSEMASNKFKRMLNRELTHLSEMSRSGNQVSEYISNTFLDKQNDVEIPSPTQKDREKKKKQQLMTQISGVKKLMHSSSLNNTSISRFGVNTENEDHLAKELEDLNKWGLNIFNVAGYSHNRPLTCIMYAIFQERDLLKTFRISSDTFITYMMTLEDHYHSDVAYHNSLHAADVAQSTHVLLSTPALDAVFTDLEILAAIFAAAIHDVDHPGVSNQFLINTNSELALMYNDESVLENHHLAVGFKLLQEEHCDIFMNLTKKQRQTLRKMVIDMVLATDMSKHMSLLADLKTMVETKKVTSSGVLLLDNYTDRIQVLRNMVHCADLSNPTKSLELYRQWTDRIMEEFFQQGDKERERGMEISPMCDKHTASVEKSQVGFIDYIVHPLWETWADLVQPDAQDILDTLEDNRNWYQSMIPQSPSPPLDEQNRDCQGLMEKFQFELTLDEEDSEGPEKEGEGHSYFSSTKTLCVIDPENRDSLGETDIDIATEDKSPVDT

IC50, 0.182 to 6.03 nM:
CCCCOc1ccc(C2=N[C@@H]3CC[C@@H](O)C[C@@H]3c3cc(OC)c(OC)cc32)cc1 (racemic) [Compound 43, (±)-(2RS,4aRS,10bRS)-6-(4-Butoxy-phenyl)-8,9-dimethoxy-1,2,3,4,4a,10b-hexahydrophenanthridin-2-ol]
COc1cc2c(cc1OC)[C@H]1C[C@H](O)CC[C@H]1N=C2c1ccc(NC(C)=O)cc1 (racemic) [Compound 45, (±)-N-[4-((2RS,4aRS,10bRS)-2-Hydroxy-8,9-dimethoxy-1,2,3,4,4a,10b-hexahydro-phenanthridin-6-yl)-phenyl]-acetamide]
COc1cc2c(cc1OC)[C@H]1C[C@H](O)CC[C@H]1N=C2c1ccc(Cl)cc1 (racemic) [Compound 46, (±)-(2RS,4aRS,10bRS)-6-(4-Chloro-phenyl)-8,9-dimethoxy-1,2,3,4,4a,10 b-hexahydro-phenanthridin-2-ol]
CCCOc1cc(C2=N[C@@H]3CC[C@@H](O)C[C@@H]3c3cc(OC)c(OC)cc32)ccc1OC (racemic) [Compound 48, (±)-(2RS,4aRS,10bRS)-8,9-Dimethoxy-6-(4-methoxy-3-propoxy-phenyl)-1,2,3,4,4a,10b-hexahydro-phenanthridin-2-ol]
COc1cc2c(cc1OC)[C@H]1C[C@H](O)CC[C@H]1N=C2c1ccc(OC(F)F)cc1 (racemic) [Compound 49, (±)-(2RS,4aRS,10bRS)-6-[4-(1,1-Difluoro-methoxy)-phenyl]-8,9-dimethoxy-1,2,3,4,4a,10b-hexahydro-phenanthridin-2-ol]
CCOc1cc2c(cc1OC)C(c1ccc(C(=O)OC)cc1)=N[C@@H]1CC[C@@H](O)C[C@H]21 (racemic) [Compound 50, (±)-4-((2RS,4aRS,10bRS)-9-Ethoxy-2-hydroxy-8-methoxy-1,2,3,4,4a,10 b-hexahydro-phenanthridin-6-yl)-benzoic acid methyl ester]
CCOc1cc2c(cc1OC)C(c1ccc(F)cc1)=N[C@@H]1CC[C@@H](O)C[C@H]21 (racemic) [Compound 51, (±)-(2RS,4aRS,10bRS)-9-Ethoxy-6-(4-fluoro-phenyl)-8-methoxy-1,2,3,4,4a,10b-hexahydro-phenanthridin-2-ol]
CCOc1cc2c(cc1OC)C(c1ccc(C#N)cc1)=N[C@@H]1CC[C@@H](O)C[C@H]21 (racemic) [Compound 52, (±)-4-((2RS,4aRS,10bRS)-9-Ethoxy-2-hydroxy-8-methoxy-1,2,3,4,4a,10b-hexahydro-phenanthridin-6-yl)-benzonitrile]
CCOc1cc2c(cc1OC)C(c1ccc(OCC)c(OCC3CC3)c1)=N[C@@H]1CC[C@@H](O)C[C@H]21 (racemic) [Compound 53, (±)-(2RS,4aRS,10bRS)-6-(3-Cyclopropylmethoxy-4-ethoxy-phenyl)-9-ethoxy-8-methoxy-1,2,3,4,4a,10b-hexahydro-phenanthridin-2-ol]
CCOc1cc2c(cc1OC)C(c1ccc(OC(F)F)c(OCC3CC3)c1)=N[C@@H]1CC[C@@H](O)C[C@H]21 (racemic) [Compound 54, (±)-(2RS,4aRS,10bRS)-6-[3-Cyclopropylmethoxy-4-(1,1-difluoro-methoxy)-phenyl]-9-ethoxy-8-methoxy-1,2,3,4,4a,10b-hexahydro-phenanthridin-2-ol]
CCOc1cc2c(cc1OC)C(c1ccc(OC(F)F)c(OC(F)F)c1)=N[C@@H]1CC[C@@H](O)C[C@H]21 (racemic) [Compound 55, (±)-(2RS,4aRS,10bRS)-6-[3,4-Bis-(1,1-difluoro-methoxy)-phenyl]-9-ethoxy-8-methoxy-1,2,3,4,4a,10b-hexahydro-phenanthridin-2-ol]
CCOc1cc2c(cc1OC)C(c1cccc(OC(F)F)c1)=N[C@@H]1CC[C@@H](O)C[C@H]21 (racemic) [Compound 56, (±)-(2RS,4aRS,10bRS)-6-[3-(1,1-Difluoro-methoxy)-phenyl]-9-ethoxy-8-methoxy-1,2,3,4,4a,10b-hexahydro-phenanthridin-2-ol]
CCOc1cc2c(cc1OC)C(c1ccc(OC(F)(F)C(F)F)cc1)=N[C@@H]1CC[C@@H](O)C[C@H]21 (racemic) [Compound 57, (±)-(2RS,4aRS,10bRS)-9-Ethoxy-8-methoxy-6-[4-(1,1,2,2-tetrafluoro-ethoxy)-phenyl]-1,2,3,4,4a,10b-hexahydro-phenanthridin-2-ol]
CCOc1cc2c(cc1OC)C(c1ccc(OC(F)(F)F)cc1)=N[C@@H]1CC[C@@H](O)C[C@H]21 (racemic) [Compound 58, (±)-(2RS,4aRS,10bRS)-9-Ethoxy-8-methoxy-6-(4-trifluoromethoxy-phenyl)-1,2,3,4,4a,10b-hexahydro-phenanthridin-2-ol]
CCOc1cc2c(cc1OC)C(c1ccc(OC)c(F)c1)=N[C@@H]1CC[C@@H](O)C[C@H]21 (racemic) [Compound 59, (±)-(2RS,4aRS,10bRS)-9-Ethoxy-6-(3-fluoro-4-methoxy-phenyl)-8-methoxy-1,2,3,4,4a,10b-hexahydro-phenanthridin-2-ol]
CCOc1cc2c(cc1OC)C(c1ccc(F)c(F)c1)=N[C@@H]1CC[C@@H](O)C[C@H]21 (racemic) [Compound 60, (±)-(2RS,4aRS,10bRS)-6-(3,4-Difluoro-phenyl)-9-ethoxy-8-methoxy-1,2,3,4,4a,10b-hexahydro-phenanthridin-2-ol]
CCOc1cc2c(cc1OC)C(c1cccc(F)c1)=N[C@@H]1CC[C@@H](O)C[C@H]21 (racemic) [Compound 61, (±)-(2RS,4aRS, 10bRS)-9-Ethoxy-6-(3-fluoro-phenyl)-8-methoxy-1,2,3,4,4a,10b-hexahydro-phenanthridin-2-ol]
CCOc1cc2c(cc1OC)C(c1ccc(Br)cc1)=N[C@@H]1CC[C@@H](O)C[C@H]21 (racemic) [Compound 62, (±)-(2RS,4aRS,10bRS)-6-(4-Bromo-phenyl)-9-ethoxy-8-methoxy-1,2,3,4,4a,10b-hexahydro-phenanthridin-2-ol]
COc1cc2c(cc1OC)[C@H]1C[C@H](O)CC[C@H]1N=C2c1ccc(C)cc1 (racemic) [Compound 63, (±)-(2RS,4aRS,10bRS)-8,9-Dimethoxy-6-p-tolyl-1,2,3,4,4a,10b-hexahydro-phenanthridin-2-ol]
COc1cc2c(cc1OC)[C@H]1C[C@H](O)CC[C@H]1N=C2c1ccc(Oc2ccccc2)cc1 (racemic) [Compound 64, (±)-(2RS,4aRS,10bRS)-8,9-Dimethoxy-6-(4-phenoxy-phenyl)-1,2,3,4,4a,10b-hexahydro-phenanthridin-2-ol]
COCCO[C@@H]1CC[C@H]2N=C(c3ccc(OCC4CC4)c(OCC4CC4)c3)c3cc(OC)c(OC)cc3[C@H]2C1 (racemic) [Compound 76, (±)-(2RS,4aRS,10bRS)-6-(3,4-Bis-cyclopropylmethoxy-phenyl)-8,9-dimethoxy-2-(2-methoxy-ethoxy)-1,2,3,4,4a,10b-hexahydro-phenanthridine]
